Assay results as given in the supplement of paper PMC4862054.

What was measured:
Test in all cases: drug sensitivity score (DSS), CellTiter-Blue viability (DSS (AUC-based score)); higher = stronger viability inhibition; extreme values may be limits of the assay
Details in all cases: incubation time: 72 h
BT-474 = tested on: BT-474
Procedure: (§1)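 DSRT with the CellTiter-Blue (resazurin reduction) viability readout, fluorescence 560/590 nm, 72 h incubation. Plates were normalised to DMSO and benzethonium chloride controls. DSS is computed from the area under the fitted dose-response curve (5 or 9 concentrations).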

BT-549 = tested on: BT-549
Procedure: as §1

CAL-120 = tested on: CAL-120
Procedure: as §1

CAL-51 = tested on: CAL-51
Procedure: as §1

CAL-85-1 = tested on: CAL-85-1
Procedure: as §1

DU-4475 = tested on: DU-4475
Procedure: as §1

HCC1143 = tested on: HCC1143
Procedure: as §1

HDQ-P1 = tested on: HDQ-P1
Procedure: as §1

Hs578T = tested on: Hs578T
Procedure: as §1

MDA-MB-231 = tested on: MDA-MB-231
Procedure: as §1

MDA-MB-453 = tested on: MDA-MB-453
Procedure: as §1

MDA-MB-468 = tested on: MDA-MB-468
Procedure: as §1

MFM-223 = tested on: MFM-223
Procedure: as §1

SK-BR-3 = tested on: SK-BR-3
Procedure: as §1

Row | Compound | drug sensitivity score (BT-474) | drug sensitivity score (BT-549) | drug sensitivity score (CAL-120) | drug sensitivity score (CAL-51) | drug sensitivity score (CAL-85-1) | drug sensitivity score (DU-4475) | drug sensitivity score (HCC1143) | drug sensitivity score (HDQ-P1) | drug sensitivity score (Hs578T) | drug sensitivity score (MDA-MB-231) | drug sensitivity score (MDA-MB-453) | drug sensitivity score (MDA-MB-468) | drug sensitivity score (MFM-223) | drug sensitivity score (SK-BR-3)
1 | Nc1cc(C(F)(F)F)c(-c2cc(N3CCOCC3)nc(N3CCOCC3)n2)cn1 [BKM-120] | 9.72 | 8.93 | 8.37 | 11.6 | 9.38 | 6.63 | 5.44 | 9.78 | 5.79 | 8.24 | 13.8 | 6.64 | 9.9 | 16.8
2 | O=C(/C=C/c1cccc(S(=O)(=O)Nc2ccccc2)c1)NO [Belinostat] | 11.8 | 8.08 | 19 | 10.6 | 12.2 | 15 | 10.3 | 11.8 | 8.1 | 12.5 | 22.4 | 8.06 | 12.7 | 19
3 | O=P1(N(CCCl)CCCl)NCCCO1 (stereo unspecified) [Cyclophosphamide] | 0 | 0 | 0 | 0 | 0 | 0 | 0 | 0 | 0 | 0 | 0 | 0 | 0 | 0
4 | C=C1C[C@@H]2[C@H](CC[C@]3(C)C(=O)CC[C@@H]23)[C@@]2(C)C=CC(=O)C=C12 [Exemestane] | 0 | 0 | 0 | 0 | 0 | 0 | 0 | 0 | 0 | 0 | 1.5 | 0 | 0 | 0
5 | O=C(Nc1ccncc1)C(=O)c1cn(Cc2ccc(Cl)cc2)c2ccccc12 [Indibulin] | 18.3 | 16.6 | 22.2 | 10.8 | 11.8 | 7.93 | 16.4 | 12.5 | 11.3 | 20.7 | 18 | 15.3 | 5.75 | 25.9
6 | NC(=O)c1ccc(I)c([N+](=O)[O-])c1 [Iniparib] | 0 | 0 | 1.19 | 0 | 0 | 0 | 0 | 0 | 0 | 0 | 0 | 0 | 0 | 0
7 | Oc1ccc2c(c1)CC[C@H](c1ccccc1)[C@@H]2c1ccc(OCCN2CCCC2)cc1 [Lasofoxifene] | 0 | 0 | 0 | 0 | 0 | 0 | 0 | 0 | 0 | 0 | 0 | 0 | 0 | 0
8 | Cc1ccc(NC(=O)c2ccc(CN3CCN(C)CC3)cc2)cc1Nc1nc(-c2cccnc2)cs1 [Masitinib] | 0 | 0 | 0 | 0 | 0 | 0 | 0 | 0 | 0 | 0 | 4.09 | 0 | 0 | 2.27
9 | O=C(Nc1cccnc1)N1CCC(Cc2cccc(Oc3ccc(C(F)(F)F)cn3)c2)CC1 [PF-3845] | 1.39 | 4.79 | 0 | 0.908 | 0 | 0 | 0 | 0 | 0.892 | 0 | 4.35 | 0.694 | 0 | 0
10 | Cc1[nH]c2ccccc2c1CCNCc1ccc(/C=C/C(=O)NO)cc1 [Panobinostat] | 17.5 | 9.07 | 22.2 | 15 | 18.2 | 20 | 16.3 | 14 | 17.6 | 16.5 | 27.8 | 11.3 | 14.6 | 23
11 | COCC1(CO)C(=O)C2CCN1CC2 (stereo unspecified) [Prima-1 Met] | 2.5 | 0 | 0 | 0 | 0 | 0 | 0 | 0 | 0.00378 | 0 | 0 | 0 | 0 | 0
12 | CNC(=O)c1cc(Oc2ccc(NC(=O)Nc3ccc(Cl)c(C(F)(F)F)c3)c(F)c2)ccn1 [Regorafenib] | 1.39 | 1.64 | 1.05 | 3.37 | 0 | 3.68 | 9.31 | 0 | 2.98 | 8.54 | 5.4 | 1.71 | 9.2 | 0
13 | CO[C@H]1C[C@@H]2CC[C@@H](C)[C@@](O)(O2)C(=O)C(=O)N2CCCC[C@H]2C(=O)O[C@H]([C@H](C)C[C@@H]2CC[C@@H](OP(C)(C)=O)[C@H](OC)C2)CC(=O)[C@H](C)/C=C(\C)[C@@H](O)[C@@H](OC)C(=O)[C@H](C)C[C@H](C)/C=C/C=C/C=C/1C [Ridaforolimus] | 14.5 | 17.6 | 19.1 | 22 | 16 | 16.7 | 16.3 | 7.08 | 19.1 | 2.74 | 29.9 | 16.7 | 22.1 | 16.8
14 | c1ccc2c(CCNc3ccc(Nc4ccncc4)cc3)c[nH]c2c1 [Serdemetan] | 0 | 6.96 | 0 | 1.53 | 0 | 3.86 | 0 | 0 | 2.84 | 0 | 3.89 | 0 | 0 | 0
15 | S=P(N1CC1)(N1CC1)N1CC1 [Thio-TEPA] | 0 | 0 | 0 | 0 | 0 | 0 | 0 | 0 | 0 | 3.37 | 0 | 0 | 0 | 0
16 | CN(C)CCOc1ccc(/C(=C(/CCCl)c2ccccc2)c2ccccc2)cc1 [Toremifene] | 0 | 0 | 0 | 0 | 0 | 0 | 0 | 0 | 0 | 0 | 1.86 | 2.87 | 0 | 0
17 | CC(C)C[C@@H](C(=O)N[C@H](C(=O)OC1CCCC1)c1ccccc1)[C@H](O)C(=O)NO [Tosedostat] | 0 | 11.3 | 12.7 | 4.1 | 4.66 | 13.4 | 7.29 | 4.23 | 2.31 | 12.5 | 15.8 | 13.2 | 8.63 | 0
18 | COc1cc2/c(=N/c3ccc(Br)cc3F)nc[nH]c2cc1OCC1CCN(C)CC1 [Vandetanib] | 7.12 | 5.01 | 3.15 | 6.07 | 6.73 | 0 | 0.583 | 14 | 3.9 | 6.74 | 3.82 | 6.11 | 8.55 | 4.07
19 | COCC[n+]1c2c(n(Cc3cnccn3)c1C)C(=O)c1ccccc1C2=O [YM155] | 32.9 | 26.8 | 40.9 | 31.9 | 38 | 23.3 | 30.3 | 33.6 | 22.6 | 40 | 35.5 | 40.3 | 29.7 | 37
